In PubChem BioAssay (NCI):
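How tested: cells in 96-well plates exposed to compound for 48 hours at five concentrations. The concentration for 50% growth inhibition is given as GI50. TGI marks complete inhibition of growth.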

Columns and labels:
Assay in all cases: DTP human tumour cell line panel, 48 h
[1] = system: HL-60(TB) leukemia
[2] = system: NCI-H460 lung
[3] = system: NCI-H522 lung
[4] = system: ACHN renal
[5] = system: HCT-15 colon
[6] = system: NCI-H226 lung
[7] = system: HT29 colon
[8] = system: EKVX NSCLC
[9] = system: HCC-2998 colon
[10] = system: SF-539 CNS
[11] = system: TK-10 renal
[12] = system: NCI-H23 lung
[13] = system: MALME-3M melanoma
[14] = system: UACC-257 melanoma
[15] = system: CCRF-CEM leukemia
[16] = system: SN12C renal
[17] = system: OVCAR-8 ovarian
[18] = system: UACC-62 melanoma
[19] = system: RXF 393 renal
[20] = system: SK-MEL-2 melanoma
[21] = system: CAKI-1 renal
[22] = system: RPMI-8226 leukemia
[23] = system: SR leukemia
[24] = system: HOP-92 NSCLC
[25] = system: SK-OV-3 ovarian
[26] = system: SF-295 CNS
[27] = system: SF-268 CNS
[28] = system: COLO 205 colon
[29] = system: MDA-MB-435
[30] = system: SK-MEL-28 melanoma
[31] = system: HS 578T breast
[32] = system: 786-0 renal
[33] = system: DU-145 prostate
[34] = system: OVCAR-4 ovarian
[35] = system: SNB-19 CNS
[36] = system: SK-MEL-5 melanoma
[37] = system: LOX IMVI melanoma
[38] = system: A549 NSCLC
[39] = system: K-562 leukemia
[40] = system: PC-3 prostate
[41] = system: U251 CNS
[42] = system: SW-620 colon
[43] = system: A498 renal
[44] = system: OVCAR-3 ovarian
[45] = system: UO-31 renal
[46] = system: T-47D breast
[47] = system: HCT-116 colon
[48] = system: M14 melanoma
[49] = system: IGROV1 ovarian
[50] = system: NCI/ADR-RES ovarian
[51] = system: MOLT-4 leukemia
[52] = system: SNB-75 CNS
[53] = system: MCF7 breast
[54] = system: MDA-MB-231 breast
[55] = system: KM12 colon
[56] = system: OVCAR-5 ovarian
[57] = system: HOP-62 NSCLC
[58] = system: BT-549 breast

O=c1[nH]c2ccc(N=Cc3c(O)[nH]c4ccccc34)cc2[nH]1
GI50 [1]: > 25 µM
TGI [1]: > 25 µM
GI50 [2]: > 25 µM
TGI [2]: > 25 µM
GI50 [3]: > 25 µM
TGI [3]: > 25 µM
GI50 [4]: > 25 µM
TGI [4]: > 25 µM
GI50 [5]: > 25 µM
TGI [5]: > 25 µM
GI50 [6]: > 25 µM
TGI [6]: > 25 µM
GI50 [7]: > 25 µM
TGI [7]: > 25 µM
GI50 [8]: > 25 µM
TGI [8]: > 25 µM
GI50 [9]: > 25 µM
TGI [9]: > 25 µM
GI50 [10]: > 25 µM
TGI [10]: > 25 µM
GI50 [11]: > 25 µM
TGI [11]: > 25 µM
GI50 [12]: > 25 µM
TGI [12]: > 25 µM
GI50 [13]: > 25 µM
TGI [13]: > 25 µM
GI50 [14]: > 25 µM
TGI [14]: > 25 µM
GI50 [15]: 24.2 µM
TGI [15]: > 25 µM
GI50 [16]: > 25 µM
TGI [16]: > 25 µM
GI50 [17]: > 25 µM
TGI [17]: > 25 µM
GI50 [18]: > 25 µM
TGI [18]: > 25 µM
GI50 [19]: > 25 µM
TGI [19]: > 25 µM
GI50 [20]: > 25 µM
TGI [20]: > 25 µM
GI50 [21]: > 25 µM
TGI [21]: > 25 µM
GI50 [22]: > 25 µM
TGI [22]: > 25 µM
GI50 [23]: > 25 µM
TGI [23]: > 25 µM
GI50 [24]: 23.2 µM
TGI [24]: > 25 µM
GI50 [25]: > 25 µM
TGI [25]: > 25 µM
GI50 [26]: > 25 µM
TGI [26]: > 25 µM
GI50 [27]: > 13.8 µM
TGI [27]: > 25 µM
GI50 [28]: > 25 µM
TGI [28]: > 25 µM
GI50 [29]: > 25 µM
TGI [29]: > 25 µM
GI50 [30]: > 25 µM
TGI [30]: > 25 µM
GI50 [31]: > 6.4 µM
TGI [31]: > 25 µM
GI50 [32]: > 25 µM
TGI [32]: > 25 µM
GI50 [33]: > 20.4 µM
TGI [33]: > 25 µM
GI50 [34]: > 25 µM
TGI [34]: > 25 µM
GI50 [35]: > 25 µM
TGI [35]: > 25 µM
GI50 [36]: > 25 µM
TGI [36]: > 25 µM
GI50 [37]: > 25 µM
TGI [37]: > 25 µM
GI50 [38]: > 25 µM
TGI [38]: > 25 µM
GI50 [39]: > 25 µM
TGI [39]: > 25 µM
GI50 [40]: > 25 µM
TGI [40]: > 25 µM
GI50 [41]: 18.6 µM
TGI [41]: > 25 µM
GI50 [42]: > 25 µM
TGI [42]: > 25 µM
GI50 [43]: > 25 µM
TGI [43]: > 25 µM
GI50 [44]: > 25 µM
TGI [44]: > 25 µM
GI50 [45]: > 25 µM
TGI [45]: > 25 µM
GI50 [46]: > 25 µM
TGI [46]: > 25 µM
GI50 [47]: > 25 µM
TGI [47]: > 25 µM
GI50 [48]: > 25 µM
TGI [48]: > 25 µM
GI50 [49]: > 25 µM
TGI [49]: > 25 µM
GI50 [50]: > 25 µM
TGI [50]: > 25 µM
GI50 [51]: > 25 µM
TGI [51]: > 25 µM
GI50 [52]: > 14.7 µM
TGI [52]: > 25 µM
GI50 [53]: > 25 µM
TGI [53]: > 25 µM
GI50 [54]: > 25 µM
TGI [54]: > 25 µM
GI50 [55]: > 25 µM
TGI [55]: > 25 µM
GI50 [56]: > 25 µM
TGI [56]: > 25 µM
GI50 [57]: > 17.7 µM
TGI [57]: > 25 µM
GI50 [58]: > 25 µM
TGI [58]: > 25 µM
